For orientation: pIC50 means the negative decadic logarithm of the IC50, by convention in mol/L.

pIC50: −log10 of the molar value. *1 amine or outer side, *2 acyl side, *3 side chain or, on linkers, in order; H or OH if unused. Where a SMILES comes first, the peptide text is derived from it. Bridges are numbered along the chain shown (N, C = ends). [ ]: non-standard residue; d: D form. The star is where a group is joined. ξ: configuration not given here. Phe(4-COOH) = N[C@@H](Cc1ccc(C(=O)O)cc1)C(=O)O; Bip = N[C@@H](Cc1ccc(-c2ccccc2)cc1)C(=O)O; Phe(3-Me) = Cc1cccc(C[C@H](N)C(=O)O)c1; NMeAEEA = CN(CCOCCOCC(=O)[*:2])[*:1]; X14 = O=C([C@H](CCCCO)N[*:1])[*:2]; 4Pal = N[C@@H](Cc1ccncc1)C(=O)O; Aad = N[C@@H](CCCC(=O)O)C(=O)O; Cha = N[C@@H](CC1CCCCC1)C(=O)O; Cit = NC(=O)NCCC[C@H](N)C(=O)O; Ile(3ξ) = CCC(C)[C@H](N)C(=O)O; Thr(3ξ) = CC(O)[C@H](N)C(=O)O; hSer = N[C@@H](CCO)C(=O)O; Carboxymethyl = O=C(O)C*; NMeA = CN[C@@H](C)C(=O)O; Orn = NCCC[C@H](N)C(=O)O; Aun = NCCCCCCCCCCC(=O)O; Dab = NCC[C@H](N)C(=O)O; AEEA = NCCOCCOCC(=O)O

In this assay the target is T1, PD-1/PD-L1 interaction (PE-labeled human PD-L1-Ig binding to Jurkat cell line over-expressing human PD-1) (Homo sapiens, UniProt Q15116).
T1 construct: expressed in transfected cells; host or cells: Jurkat
T1 sequence (Q15116 25-288): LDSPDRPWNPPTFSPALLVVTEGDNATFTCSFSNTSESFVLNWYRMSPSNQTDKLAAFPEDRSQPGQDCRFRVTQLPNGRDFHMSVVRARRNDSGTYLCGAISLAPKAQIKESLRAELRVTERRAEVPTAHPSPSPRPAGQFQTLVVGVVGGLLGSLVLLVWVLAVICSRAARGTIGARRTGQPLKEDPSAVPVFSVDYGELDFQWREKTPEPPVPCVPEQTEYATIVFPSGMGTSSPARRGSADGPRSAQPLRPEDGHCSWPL
Nature of the assay: Jurkat-PD-1 Cell Binding High-Content Screening Assay (CBA). Particulars: Jurkat-hPD-1 cells, PE-labeled PD-L1-Ig 20 nM final; read-out: Jurkat HPD1 PDL1 IC50. Put shortly: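 Jurkat cells overexpressing human PD-1 (8×10^3/well, DMEM + 10% FCS) preincubated with compound 2 h at 37 °C, then PE-labelled human PD-L1-Ig (20 nM final) for 1 h. Cells fixed in paraformaldehyde with Hoechst 33342; bound PD-L1 quantified by high-content imaging.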
In the case of `CCC(C)[C@@H]1NC(=O)[C@H](Cc2ccc(-c3ccccc3)cc2)NC(=O)[C@H](C(C)C)NC(=O)[C@H](Cc2c[nH]c3ccccc23)NC(=O)[C@H](CC(=O)O)NC(=O)[C@H](Cc2ccc(OCC(=O)O)cc2)NC(=O)[C@H](C(C)O)NC(=O)CSC[C@@H](C(=O)N[C@H](CC(N)=O)C(=O)NCCCCCCCCCCC(=O)O)NC(=O)[C@H](CCCCN)NC(=O)[C@H](C(C)C)NC(=O)[C@H](CC2CCCCC2)NC(=O)[C@H](CCN)NC(=O)[C@@H](CC(C)C)NC(=O)[C@H](C)N(C)C1=O` (stereo partly drawn) [Example 2210] ({CH2CO}-[Thr(3ξ)]Y(Carboxymethyl)DWV[Bip][Ile(3ξ)][NMeA][dL][Dab][Cha]VKC[dN][Aun]-OH; thioether N-14), the pIC50 is 8.00.
Regarding `Cc1cccc(C[C@@H]2NC(=O)[C@H](CC(=O)O)NC(=O)[C@H](Cc3ccc(OCC(=O)O)cc3)NC(=O)[C@H](CCCNC(=N)N)NC(=O)CSC[C@@H](C(=O)N[C@@H](CCN)C(=O)NCCCCCCCCCCC(=O)O)NC(=O)[C@H](C(C)O)NC(=O)[C@H](C(C)C)NC(=O)[C@H](CC3CCCCC3)NC(=O)[C@H](CCN)NC(=O)[C@@H](CC(C)C)NC(=O)[C@H](C)N(C)C(=O)[C@H](CCCNC(N)=O)NC(=O)[C@H](Cc3ccc(-c4ccccc4)cc3)NC(=O)[C@H](C(C)C)NC2=O)c1` (stereo partly drawn) [Example 2211] ({CH2CO}-RY(Carboxymethyl)D[Phe(3-Me)]V[Bip][Cit][NMeA][dL][Dab][Cha]V[Thr(3ξ)]C[Dab][Aun]-OH; thioether N-14), the pIC50 is 8.07.
Turning to `Cc1cccc(C[C@@H]2NC(=O)[C@H](CC(=O)O)NC(=O)[C@H](Cc3ccc(OCC(=O)O)cc3)NC(=O)[C@H](CCCNC(=N)N)NC(=O)CSC[C@@H](C(=O)N[C@@H](CCN)C(=O)NCCCCCCCCCCC(=O)O)NC(=O)[C@H](CCCCN)NC(=O)[C@H](C(C)C)NC(=O)[C@H](CC3CCCCC3)NC(=O)[C@H](CCN)NC(=O)[C@@H](CC(C)C)NC(=O)[C@H](C)N(C)C(=O)[C@H](CCCNC(N)=O)NC(=O)[C@H](Cc3ccc(-c4ccccc4)cc3)NC(=O)[C@H](C(C)C)NC2=O)c1` [Example 2212] ({CH2CO}-RY(Carboxymethyl)D[Phe(3-Me)]V[Bip][Cit][NMeA][dL][Dab][Cha]VKC[Dab][Aun]-OH; thioether N-14), the negative logarithm of the IC50 (pIC50) is 7.79.
Next, `Cc1cccc(C[C@@H]2NC(=O)[C@H](CC(=O)O)NC(=O)[C@H](Cc3ccc(C(=O)O)cc3)NC(=O)[C@H](Cc3ccc(OCC(=O)O)cc3)NC(=O)CSC[C@@H](C(=O)NCCOCCOCC(=O)NCCCCCCCCCCC(=O)O)NC(=O)[C@H](CCCCO)NC(=O)[C@H](C(C)C)NC(=O)[C@H](CC3CCCCC3)NC(=O)[C@H](CCN)NC(=O)[C@@H](CC(C)C)NC(=O)[C@H](C)N(C)C(=O)[C@H](Cc3ccc(O)cc3)NC(=O)[C@H](Cc3ccc(-c4ccccc4)cc3)NC(=O)[C@H](C(C)C)NC2=O)c1` [Example 2213] ({CH2CO}-Y(Carboxymethyl)[Phe(4-COOH)]D[Phe(3-Me)]V[Bip]Y[NMeA][dL][Dab][Cha]V[X14]C[AEEA][Aun]-OH; thioether N-14): 7.84.
Next, `Cc1cccc(C[C@@H]2NC(=O)[C@H](CC(=O)O)NC(=O)[C@H](Cc3ccc(C(=O)O)cc3)NC(=O)[C@H](Cc3ccc(OCC(=O)O)cc3)NC(=O)CSC[C@@H](C(=O)N[C@@H](CCN)C(=O)NCCCCCCCCCCC(=O)O)NC(=O)[C@H](CCCC(=O)O)NC(=O)[C@H](C(C)C)NC(=O)[C@H](CC3CCCCC3)NC(=O)[C@H](CCN)NC(=O)[C@@H](CC(C)C)NC(=O)[C@H](C)N(C)C(=O)[C@H](C(C)C)NC(=O)[C@H](Cc3ccc(-c4ccccc4)cc3)NC(=O)[C@H](C(C)C)NC2=O)c1` [Example 2214] ({CH2CO}-Y(Carboxymethyl)[Phe(4-COOH)]D[Phe(3-Me)]V[Bip]V[NMeA][dL][Dab][Cha]V[Aad]C[Dab][Aun]-OH; thioether N-14): 7.79.
The value for `Cc1cccc(C[C@@H]2NC(=O)[C@H](CC(=O)O)NC(=O)[C@H](Cc3c[nH]cn3)NC(=O)[C@H](Cc3ccc(OCC(=O)O)cc3)NC(=O)CSC[C@@H](C(=O)N[C@@H](CCN)C(=O)NCCCCCCCCCCC(=O)O)NC(=O)[C@H](CCCC(=O)O)NC(=O)[C@H](C(C)C)NC(=O)[C@H](CC3CCCCC3)NC(=O)[C@H](CCN)NC(=O)[C@@H](CC(C)C)NC(=O)[C@H](C)N(C)C(=O)[C@H](C(C)C)NC(=O)[C@H](Cc3ccc(-c4ccccc4)cc3)NC(=O)[C@H](C(C)C)NC2=O)c1` [Example 2215] ({CH2CO}-Y(Carboxymethyl)HD[Phe(3-Me)]V[Bip]V[NMeA][dL][Dab][Cha]V[Aad]C[Dab][Aun]-OH; thioether N-14) was 8.04; that for `Cc1cccc(C[C@@H]2NC(=O)[C@H](CC(=O)O)NC(=O)[C@H](Cc3ccc(C(=O)O)cc3)NC(=O)[C@H](Cc3ccc(OCC(=O)O)cc3)NC(=O)CSC[C@@H](C(=O)NCCCCCCCCCCC(=O)O)NC(=O)[C@H](CCCNC(N)=O)NC(=O)[C@H](C(C)C)NC(=O)[C@H](CC3CCCCC3)NC(=O)[C@H](CCN)NC(=O)[C@@H](CC(C)C)NC(=O)[C@H](C)N(C)C(=O)[C@H](C(C)C)NC(=O)[C@H](Cc3ccc(-c4ccccc4)cc3)NC(=O)[C@H](C(C)C)NC2=O)c1` [Example 2216] ({CH2CO}-Y(Carboxymethyl)[Phe(4-COOH)]D[Phe(3-Me)]V[Bip]V[NMeA][dL][Dab][Cha]V[Cit]C[Aun]-OH; thioether N-14) was 7.86.
With `Cc1cccc(C[C@@H]2NC(=O)[C@H](CC(=O)O)NC(=O)[C@H](Cc3ccc(C(=O)O)cc3)NC(=O)[C@H](Cc3ccc(OCC(=O)O)cc3)NC(=O)CSC[C@@H](C(=O)NCCOCCOCC(=O)NCCCCCCCCCCC(=O)O)NC(=O)[C@H](CCO)NC(=O)[C@H](C(C)C)NC(=O)[C@H](CC3CCCCC3)NC(=O)[C@H](CCN)NC(=O)[C@@H](CC(C)C)NC(=O)[C@H](C)N(C)C(=O)[C@H](C(C)C)NC(=O)[C@H](Cc3ccc(-c4ccccc4)cc3)NC(=O)[C@H](C(C)C)NC2=O)c1` [Example 2217] ({CH2CO}-Y(Carboxymethyl)[Phe(4-COOH)]D[Phe(3-Me)]V[Bip]V[NMeA][dL][Dab][Cha]V[hSer]C[AEEA][Aun]-OH; thioether N-14), the pIC50 was 7.94.
Take `Cc1cccc(C[C@@H]2NC(=O)[C@H](CC(=O)O)NC(=O)[C@H](Cc3ccc(OCC(=O)O)cc3)NC(=O)[C@H](Cc3ccncc3)NC(=O)CSC[C@@H](C(=O)NCCOCCOCC(=O)NCCCCCCCCCCC(=O)O)NC(=O)[C@H](CCCN)NC(=O)[C@H](C(C)C)NC(=O)[C@H](CC3CCCCC3)NC(=O)[C@H](CCN)NC(=O)[C@@H](CC(C)C)NC(=O)[C@H](C)N(C)C(=O)[C@H](Cc3ccc(O)cc3)NC(=O)[C@H](Cc3ccc(-c4ccccc4)cc3)NC(=O)[C@H](CC(C)C)NC2=O)c1` [Example 2218] ({CH2CO}-[4Pal]Y(Carboxymethyl)D[Phe(3-Me)]L[Bip]Y[NMeA][dL][Dab][Cha]V[Orn]C[AEEA][Aun]-OH; thioether N-14): the pIC50 was 7.48.
The value for `Cc1cccc(C[C@@H]2NC(=O)[C@H](CC(=O)O)NC(=O)[C@H](Cc3ccc(OCC(=O)O)cc3)NC(=O)[C@H](C(C)O)NC(=O)CSC[C@@H](C(=O)N(C)CCOCCOCC(=O)NCCCCCCCCCCC(=O)O)NC(=O)[C@H](CCCN)NC(=O)[C@H](C(C)C)NC(=O)[C@H](CC3CCCCC3)NC(=O)[C@H](CCN)NC(=O)[C@@H](CC(C)C)NC(=O)[C@H](C)N(C)C(=O)[C@H](C(C)C)NC(=O)[C@H](Cc3ccc(-c4ccccc4)cc3)NC(=O)[C@H](C(C)C)NC2=O)c1` (stereo partly drawn) [Example 2219] ({CH2CO}-[Thr(3ξ)]Y(Carboxymethyl)D[Phe(3-Me)]V[Bip]V[NMeA][dL][Dab][Cha]V[Orn]C[NMeAEEA][Aun]-OH; thioether N-14) was 8.21; that for `CC(=O)NCCCC[C@@H]1NC(=O)[C@H](C(C)C)NC(=O)[C@H](CC2CCCCC2)NC(=O)[C@H](CCN)NC(=O)[C@@H](CC(C)C)NC(=O)[C@H](C)N(C)C(=O)[C@H](CCC(N)=O)NC(=O)[C@H](Cc2ccc(-c3ccccc3)cc2)NC(=O)[C@H](C(C)C)NC(=O)[C@H](Cc2cccc(C)c2)NC(=O)[C@H](CC(=O)O)NC(=O)[C@H](Cc2ccc(OCC(=O)O)cc2)NC(=O)[C@H](Cc2ccc(OCC(=O)O)cc2)NC(=O)CSC[C@@H](C(=O)N[C@@H](CCN)C(=O)NCCCCCCCCCCC(=O)O)NC1=O` [Example 2220] ({CH2CO}-Y(Carboxymethyl)Y(Carboxymethyl)D[Phe(3-Me)]V[Bip]Q[NMeA][dL][Dab][Cha]VK(Ac)C[Dab][Aun]-OH; thioether N-14) was 8.00.
Next, `CC(=O)NCCCC[C@@H]1NC(=O)[C@H](C(C)C)NC(=O)[C@H](CC2CCCCC2)NC(=O)[C@H](CCN)NC(=O)[C@@H](CC(C)C)NC(=O)[C@H](C)N(C)C(=O)[C@H](CCO)NC(=O)[C@H](Cc2ccc(-c3ccccc3)cc2)NC(=O)[C@H](C(C)C)NC(=O)[C@H](Cc2cccc(C)c2)NC(=O)[C@H](CC(=O)O)NC(=O)[C@H](Cc2ccc(OCC(=O)O)cc2)NC(=O)[C@H](Cc2ccc(OCC(=O)O)cc2)NC(=O)CSC[C@@H](C(=O)N[C@@H](CCN)C(=O)NCCCCCCCCCCC(=O)O)NC1=O` [Example 2221] ({CH2CO}-Y(Carboxymethyl)Y(Carboxymethyl)D[Phe(3-Me)]V[Bip][hSer][NMeA][dL][Dab][Cha]VK(Ac)C[Dab][Aun]-OH; thioether N-14): 7.94; `CC(=O)NCCCC[C@@H]1NC(=O)[C@H](Cc2ccc(-c3ccccc3)cc2)NC(=O)[C@H](C(C)C)NC(=O)[C@H](Cc2cccc(C)c2)NC(=O)[C@H](CC(=O)O)NC(=O)[C@H](Cc2ccc(OCC(=O)O)cc2)NC(=O)[C@H](Cc2ccc(OCC(=O)O)cc2)NC(=O)CSC[C@@H](C(=O)NCCOCCOCC(=O)NCCCCCCCCCCC(=O)O)NC(=O)[C@H](CCO)NC(=O)[C@H](C(C)C)NC(=O)[C@H](CC2CCCCC2)NC(=O)[C@H](CCN)NC(=O)[C@@H](CC(C)C)NC(=O)[C@H](C)N(C)C1=O` [Example 2222] ({CH2CO}-Y(Carboxymethyl)Y(Carboxymethyl)D[Phe(3-Me)]V[Bip]K(Ac)[NMeA][dL][Dab][Cha]V[hSer]C[AEEA][Aun]-OH; thioether N-14): 7.97.

(Values after US20260070945A1, “MACROCYCLIC IMMUNOMODULATORS” (Bristol-Myers Squibb Company, priority 2022, published 2026).)
